Assay results published in patent publication US20110318768A1, “METHOD FOR DETERMINING SENSITIVITY OF TUMOR CELLS TO TYROSINE KINASE INHIBITOR AND COMPUTER PROGRAM PRODUCT” (SYSMEX CORPORATION, priority 2010, published 2011).

test system: tyrosine kinase in cell membrane fraction of ZR-75-1; experiment: Tyrosine kinase activity inhibition rate in cell membrane fraction (Poly-Glu4-Tyr substrate); type: biochemical; settings: 25 μM kinase inhibitor, 25 μM ATP
Experimental: (§1) Breast cancer cell lines shown in Table 3 were cultured in a 150 mm dish so as to be about 80% confluent, the cells were recovered using PBS and a scraper, and a cell pellet was obtained by centrifugal operation (900×g, for 5 minutes, at 4° C.). The pellet was frozen with liquid nitrogen and stored at −80° C. until preparation of the measurement sample.
(§2) 500 μl of NP40 (−) solubilized buffer (20 mM HEPES (pH 7.4)), (w/v) % glycerol, 0.2% protease inhibitor cocktail (#P8340: Sigma-Aldrich (product composition: 104 mM AEBSF, 80 μM aprotinin, 4 mM bestatin, 1.4 mM E-64, 2 mM leupeptin, 1.5 mM Pepstatin A), 50 mM NaF and 200 μM Na3VO4) was added to the cell pellet, followed by stirring for 2 seconds three times using a vortex mixer. After being allowed to stand for 10 minutes, the soluble fraction was removed by centrifugal operation (at 20000×g, for 30 minutes, at 4° C.). The obtained pellet was resuspended in 500 μl of NP40 (−) solubilized buffer, the soluble fraction was again removed by centrifugal operation (at 20000×g, for 20 minutes, at 4° C.), and the pellet was washed. The pellet was resuspended by adding 500 μl of NP40 (+) solubilized buffer (a buffer prepared by adding NP-40 to the NP40 (−) solubilized buffer at a final concentration of 1%) to the pellet, pipetting fifty times, and vortexing for 2 seconds three times. After being allowed to stand for 10 minutes, a cell membrane fraction containing a membrane protein was obtained by centrifugal operation (at 20000×g, for 40 minutes, at 4° C.). The protein concentration of the fraction was measured by DC protein assay (#500-0116 JA: Bio-Rad) and the fraction was used as a sample for kinase activity measurement. The sample was frozen with liquid nitrogen and stored at −80° C. until used for the following kinase activity measurement.
(§3) NeutrAvidin Coated Plates (HBC) (96 white plate; #15509: Pierce) were washed three times with 300 μl of TBS-T (20 mM Tris-HCl (pH 7.4)), 150 mM NaCl, 0.1% Tween), and then 100 μl of Poly-Glu4-Tyr biotin conjugate (#12440: Upstate) which had been diluted to 1 μg/ml with TBS (20 mM Tris-HCl (pH 7.4), 150 mM NaCl) was added to the wells. After shaking at 37° C. and 400 rpm for 90 minutes, the wells were washed with 300 μl of TBS-T three times and a measuring plate was obtained.
(§4) The measurement sample was diluted with a kinase buffer (20 mM HEPES (pH 7.4), 25 mM MgCl2, 1.25 mM MnCl2, 250 μM Na3VO4, 12.5 (w/v) % glycerol) so as to adjust the protein concentration to 6.25 μg/ml. The diluted measurement sample was transferred to wells of a 96 well V bottom plate. A DMSO solution (inhibitor concentration: 5 mM) containing one type of tyrosine kinase inhibitors (Inhibitors 1 to 10 shown in Table 6) was added to the wells at a ratio of 1:160 based on the diluted measurement sample solution, followed by mixing thereof. As the control, DMSO was added to the diluted measurement sample at the same ratio as the solution of the inhibitor. The used tyrosine kinase inhibitors are represented as Inhibitors 1 to 10 in Table 6.
(§5) After addition of the inhibitors, a mixed solution of the measurement sample and the inhibitor was allowed to stand at room temperature for 10 minutes. 40 μl of the mixed solution was transferred to wells of the measuring plate and 10 μl of an ATP solution (20 mM HEPES (pH 7.4), […]) as the phosphate group donor was added to the wells.
(§6) The composition of the solution in the wells is as follows: protein concentration: 5 μg/ml, 20 mM HEPES (pH 7.4), 20 mM MgCl2, 1 mM MnCl2, 200 μM Na3VO4, 10 (w/v) % glycerol, 25 μM ATP, 25 μM kinase inhibitor.
(§7) After shaking the measuring plate at 37° C. and 400 rpm for 60 minutes, the solution was removed from the measuring plate, and the wells were washed with 300 μl of TBS-T three times. 100 μl of Starting Block T20 (TBS) (#37543: Pierce) as a blocking solution was added to the wells, followed by blocking at 37° C. and 400 rpm for 10 minutes. The blocking solution was removed from the measuring plate. […]

SMILES	Inhibition rate [%]
CCCNC(=O)Nc1ccc(Oc2ncnc3cc(OC)c(OC)cc23)cc1Cl [Inhibitor 7]	18.3
CN(C)c1cc2c(Nc3ccc4c(cnn4Cc4ccccc4)c3)ncnc2cn1 [Inhibitor 4, N4-(1-benzyl-1H-indazol-5-yl)-N6,N6-dimethyl-pyrido-[3,4-d]-pyrimidine-4,6-diamine]	7.0

test system: tyrosine kinase in cell membrane fraction of HS578T; experiment: as above; type: biochemical; settings: 25 μM kinase inhibitor, 25 μM ATP
Experimental: as §1, §2, §3, §4, §5, §6, §7

SMILES	Inhibition rate [%]
CCCNC(=O)Nc1ccc(Oc2ncnc3cc(OC)c(OC)cc23)cc1Cl [Inhibitor 7]	19.4
CN(C)c1cc2c(Nc3ccc4c(cnn4Cc4ccccc4)c3)ncnc2cn1 [Inhibitor 4, N4-(1-benzyl-1H-indazol-5-yl)-N6,N6-dimethyl-pyrido-[3,4-d]-pyrimidine-4,6-diamine]	32.1

test system: tyrosine kinase in cell membrane fraction of HCC1419; experiment: as above; type: biochemical; settings: 25 μM kinase inhibitor, 25 μM ATP
Experimental: as §1, §2, §3, §4, §5, §6, §7

SMILES	Inhibition rate [%]
CCCNC(=O)Nc1ccc(Oc2ncnc3cc(OC)c(OC)cc23)cc1Cl [Inhibitor 7]	28.4
CN(C)c1cc2c(Nc3ccc4c(cnn4Cc4ccccc4)c3)ncnc2cn1 [Inhibitor 4, N4-(1-benzyl-1H-indazol-5-yl)-N6,N6-dimethyl-pyrido-[3,4-d]-pyrimidine-4,6-diamine]	23.8

test system: tyrosine kinase in cell membrane fraction of BT-20; experiment: as above; type: biochemical; settings: 25 μM kinase inhibitor, 25 μM ATP
Experimental: as §1, §2, §3, §4, §5, §6, §7

SMILES	Inhibition rate [%]
CCCNC(=O)Nc1ccc(Oc2ncnc3cc(OC)c(OC)cc23)cc1Cl [Inhibitor 7]	2.3
CN(C)c1cc2c(Nc3ccc4c(cnn4Cc4ccccc4)c3)ncnc2cn1 [Inhibitor 4, N4-(1-benzyl-1H-indazol-5-yl)-N6,N6-dimethyl-pyrido-[3,4-d]-pyrimidine-4,6-diamine]	32.4

test system: tyrosine kinase in cell membrane fraction of AU565; experiment: as above; type: biochemical; settings: 25 μM kinase inhibitor, 25 μM ATP
Experimental: as §1, §2, §3, §4, §5, §6, §7

SMILES	Inhibition rate [%]
CCCNC(=O)Nc1ccc(Oc2ncnc3cc(OC)c(OC)cc23)cc1Cl [Inhibitor 7]	7.1
CN(C)c1cc2c(Nc3ccc4c(cnn4Cc4ccccc4)c3)ncnc2cn1 [Inhibitor 4, N4-(1-benzyl-1H-indazol-5-yl)-N6,N6-dimethyl-pyrido-[3,4-d]-pyrimidine-4,6-diamine]	−3.8

test system: tyrosine kinase in cell membrane fraction of BT-474; experiment: as above; type: biochemical; settings: 25 μM kinase inhibitor, 25 μM ATP
Experimental: as §1, §2, §3, §4, §5, §6, §7

SMILES	Inhibition rate [%]
CCCNC(=O)Nc1ccc(Oc2ncnc3cc(OC)c(OC)cc23)cc1Cl [Inhibitor 7]	30.3
CN(C)c1cc2c(Nc3ccc4c(cnn4Cc4ccccc4)c3)ncnc2cn1 [Inhibitor 4, N4-(1-benzyl-1H-indazol-5-yl)-N6,N6-dimethyl-pyrido-[3,4-d]-pyrimidine-4,6-diamine]	24.6

test system: tyrosine kinase in cell membrane fraction of MDA-MB-157; experiment: as above; type: biochemical; settings: 25 μM kinase inhibitor, 25 μM ATP
Experimental: as §1, §2, §3, §4, §5, §6, §7

SMILES	Inhibition rate [%]
CCCNC(=O)Nc1ccc(Oc2ncnc3cc(OC)c(OC)cc23)cc1Cl [Inhibitor 7]	11.2
CN(C)c1cc2c(Nc3ccc4c(cnn4Cc4ccccc4)c3)ncnc2cn1 [Inhibitor 4, N4-(1-benzyl-1H-indazol-5-yl)-N6,N6-dimethyl-pyrido-[3,4-d]-pyrimidine-4,6-diamine]	29.2

test system: tyrosine kinase in cell membrane fraction of HCC1937; experiment: as above; type: biochemical; settings: 25 μM kinase inhibitor, 25 μM ATP
Experimental: as §1, §2, §3, §4, §5, §6, §7

SMILES	Inhibition rate [%]
CCCNC(=O)Nc1ccc(Oc2ncnc3cc(OC)c(OC)cc23)cc1Cl [Inhibitor 7]	17.3
CN(C)c1cc2c(Nc3ccc4c(cnn4Cc4ccccc4)c3)ncnc2cn1 [Inhibitor 4, N4-(1-benzyl-1H-indazol-5-yl)-N6,N6-dimethyl-pyrido-[3,4-d]-pyrimidine-4,6-diamine]	17.9

test system: tyrosine kinase in cell membrane fraction of HCC1806; experiment: as above; type: biochemical; settings: 25 μM kinase inhibitor, 25 μM ATP
Experimental: as §1, §2, §3, §4, §5, §6, §7

SMILES	Inhibition rate [%]
CCCNC(=O)Nc1ccc(Oc2ncnc3cc(OC)c(OC)cc23)cc1Cl [Inhibitor 7]	27.7
CN(C)c1cc2c(Nc3ccc4c(cnn4Cc4ccccc4)c3)ncnc2cn1 [Inhibitor 4, N4-(1-benzyl-1H-indazol-5-yl)-N6,N6-dimethyl-pyrido-[3,4-d]-pyrimidine-4,6-diamine]	33.7

test system: tyrosine kinase in cell membrane fraction of HCC1428; experiment: as above; type: biochemical; settings: 25 μM kinase inhibitor, 25 μM ATP
Experimental: as §1, §2, §3, §4, §5, §6, §7

SMILES	Inhibition rate [%]
CCCNC(=O)Nc1ccc(Oc2ncnc3cc(OC)c(OC)cc23)cc1Cl [Inhibitor 7]	12.9
CN(C)c1cc2c(Nc3ccc4c(cnn4Cc4ccccc4)c3)ncnc2cn1 [Inhibitor 4, N4-(1-benzyl-1H-indazol-5-yl)-N6,N6-dimethyl-pyrido-[3,4-d]-pyrimidine-4,6-diamine]	7.9

test system: tyrosine kinase in cell membrane fraction of UACC893; experiment: as above; type: biochemical; settings: UACC893; 25 μM kinase inhibitor, 25 μM ATP
Experimental: as §1, §2, §3, §4, §5, §6, §7

SMILES	Inhibition rate [%]
CCCNC(=O)Nc1ccc(Oc2ncnc3cc(OC)c(OC)cc23)cc1Cl [Inhibitor 7]	23.9
CN(C)c1cc2c(Nc3ccc4c(cnn4Cc4ccccc4)c3)ncnc2cn1 [Inhibitor 4, N4-(1-benzyl-1H-indazol-5-yl)-N6,N6-dimethyl-pyrido-[3,4-d]-pyrimidine-4,6-diamine]	−3.1

test system: tyrosine kinase in cell membrane fraction of MDA-MB-231; experiment: as above; type: biochemical; settings: 25 μM kinase inhibitor, 25 μM ATP
Experimental: as §1, §2, §3, §4, §5, §6, §7

SMILES	Inhibition rate [%]
CCCNC(=O)Nc1ccc(Oc2ncnc3cc(OC)c(OC)cc23)cc1Cl [Inhibitor 7]	9.7
CN(C)c1cc2c(Nc3ccc4c(cnn4Cc4ccccc4)c3)ncnc2cn1 [Inhibitor 4, N4-(1-benzyl-1H-indazol-5-yl)-N6,N6-dimethyl-pyrido-[3,4-d]-pyrimidine-4,6-diamine]	38.9

test system: tyrosine kinase in cell membrane fraction of T47D; experiment: as above; type: biochemical; settings: 25 μM kinase inhibitor, 25 μM ATP
Experimental: as §1, §2, §3, §4, §5, §6, §7

SMILES	Inhibition rate [%]
CCCNC(=O)Nc1ccc(Oc2ncnc3cc(OC)c(OC)cc23)cc1Cl [Inhibitor 7]	22.0
CN(C)c1cc2c(Nc3ccc4c(cnn4Cc4ccccc4)c3)ncnc2cn1 [Inhibitor 4, N4-(1-benzyl-1H-indazol-5-yl)-N6,N6-dimethyl-pyrido-[3,4-d]-pyrimidine-4,6-diamine]	27.0

test system: tyrosine kinase in cell membrane fraction of MDA-MB-436; experiment: as above; type: biochemical; settings: 25 μM kinase inhibitor, 25 μM ATP
Experimental: as §1, §2, §3, §4, §5, §6, §7

SMILES	Inhibition rate [%]
CCCNC(=O)Nc1ccc(Oc2ncnc3cc(OC)c(OC)cc23)cc1Cl [Inhibitor 7]	23.1
CN(C)c1cc2c(Nc3ccc4c(cnn4Cc4ccccc4)c3)ncnc2cn1 [Inhibitor 4, N4-(1-benzyl-1H-indazol-5-yl)-N6,N6-dimethyl-pyrido-[3,4-d]-pyrimidine-4,6-diamine]	26.3

test system: tyrosine kinase in cell membrane fraction of BT-549; experiment: as above; type: biochemical; settings: 25 μM kinase inhibitor, 25 μM ATP
Experimental: as §1, §2, §3, §4, §5, §6, §7

SMILES	Inhibition rate [%]
CCCNC(=O)Nc1ccc(Oc2ncnc3cc(OC)c(OC)cc23)cc1Cl [Inhibitor 7]	24.0
CN(C)c1cc2c(Nc3ccc4c(cnn4Cc4ccccc4)c3)ncnc2cn1 [Inhibitor 4, N4-(1-benzyl-1H-indazol-5-yl)-N6,N6-dimethyl-pyrido-[3,4-d]-pyrimidine-4,6-diamine]	48.8

test system: tyrosine kinase in cell membrane fraction of HCC1569; experiment: as above; type: biochemical; settings: 25 μM kinase inhibitor, 25 μM ATP
Experimental: as §1, §2, §3, §4, §5, §6, §7

SMILES	Inhibition rate [%]
CCCNC(=O)Nc1ccc(Oc2ncnc3cc(OC)c(OC)cc23)cc1Cl [Inhibitor 7]	16.6
CN(C)c1cc2c(Nc3ccc4c(cnn4Cc4ccccc4)c3)ncnc2cn1 [Inhibitor 4, N4-(1-benzyl-1H-indazol-5-yl)-N6,N6-dimethyl-pyrido-[3,4-d]-pyrimidine-4,6-diamine]	37.9

test system: tyrosine kinase in cell membrane fraction of MCF7; experiment: as above; type: biochemical; settings: 25 μM kinase inhibitor, 25 μM ATP
Experimental: as §1, §2, §3, §4, §5, §6, §7

SMILES	Inhibition rate [%]
CCCNC(=O)Nc1ccc(Oc2ncnc3cc(OC)c(OC)cc23)cc1Cl [Inhibitor 7]	59.1
CN(C)c1cc2c(Nc3ccc4c(cnn4Cc4ccccc4)c3)ncnc2cn1 [Inhibitor 4, N4-(1-benzyl-1H-indazol-5-yl)-N6,N6-dimethyl-pyrido-[3,4-d]-pyrimidine-4,6-diamine]	12.1
